According to ChEMBL document CHEMBL1130625, “Synthesis and antibacterial activity of novel 7-(3-substituted-3 or 4-trifluoromethyl-1-pyrrolidinyl)-8-methoxyfluoroquinolones” (1998):
Converted amounts (≈) assume the structure as drawn. Each block holds one compound with its values, some of them ahead of it.

Assays:
[1] = system: Acinetobacter calcoaceticus; assay: Compound was tested for antibacterial activity against gram negative Acinetobacter calcoaceticus No.4; type: functional
Burkholderia cepacia = assay: Compound was tested for antibacterial activity against gram negative Burkholderia cepacia 23; type: functional
Citrobacter freundii [2] = assay: Compound was tested for antibacterial activity against gram negative Citrobacter freundii KP-29; type: functional
Citrobacter freundii [3] = assay: Compound was tested for antibacterial activity against gram negative Citrobacter freundii No.7; type: functional
Enterococcus faecalis = assay: Compound was tested for antibacterial activity against gram positive Enterococcus faecalis 1373; type: functional
Escherichia coli [4] = assay: Compound was tested for antibacterial activity against gram negative Escherichia coli CSH2/RE45; type: functional
Escherichia coli [5] = assay: Compound was tested for antibacterial activity against gram negative Escherichia coli CSH2/RK1; type: functional
Escherichia coli [6] = assay: Compound was tested for antibacterial activity against gram negative Escherichia coli ML4707; type: functional
Escherichia coli [7] = assay: Compound was tested for antibacterial activity against gram negative Escherichia coli NIHJ JC-2; type: functional
Enterobacter cloacae = assay: Compound was tested for antibacterial activity against gram negative Enterobacter cloacae Nek39; type: functional
Klebsiella pneumoniae [8] = assay: Compound was tested for antibacterial activity against gram negative Klebsiella pneumoniae KC-1; type: functional
Klebsiella pneumoniae [9] = assay: Compound was tested for antibacterial activity against gram negative Klebsiella pneumoniae No.42; type: functional
Klebsiella oxytoca = assay: Compound was tested for antibacterial activity against gram negative Klebsiella oxytoca GN 10650; type: functional
Proteus mirabilis = assay: Compound was tested for antibacterial activity against gram negative Proteus mirabilis JY-10; type: functional
Proteus vulgaris [10] = assay: Compound was tested for antibacterial activity against gram negative Proteus vulgaris KS-134; type: functional
Proteus vulgaris [11] = assay: Compound was tested for antibacterial activity against gram negative Proteus vulgaris No.33; type: functional
Pseudomonas aeruginosa [12] = assay: Compound was tested for antibacterial activity against gram negative Pseudomonas aeruginosa K-13; type: functional
Pseudomonas aeruginosa [13] = assay: Compound was tested for antibacterial activity against gram negative Pseudomonas aeruginosa KP-254; type: functional
Pseudomonas aeruginosa [14] = assay: Compound was tested for antibacterial activity against gram negative Pseudomonas aeruginosa PAO1; type: functional
Pseudomonas aeruginosa [15] = assay: Compound was tested for antibacterial activity against gram negative Pseudomonas aeruginosa AK109; type: functional
Staphylococcus aureus [16] = assay: Compound was tested for antibacterial activity against gram positive Staphylococcus aureus JS-1; type: functional
Staphylococcus aureus [17] = assay: Compound was tested for antibacterial activity against gram positive Staphylococcus aureus KP-90-3; type: functional
Staphylococcus aureus [18] = assay: Compound was tested for antibacterial activity against gram positive Staphylococcus aureus smith; type: functional
Staphylococcus aureus [19] = assay: Compound was tested for antibacterial activity against gram positive Staphylococcus aureus FDA 209P JC-1; type: functional
Serratia marcescens = assay: Compound was tested for antibacterial activity against gram negative Serratia marcescens No.16-2; type: functional
Streptococcus pyogenes = assay: Compound was tested for antibacterial activity against gram positive Streptococcus pyogenes cook
[20] = Acinetobacter calcoaceticus, read-out: MIC
[21] = Burkholderia cepacia, read-out: MIC
[22] = Citrobacter freundii, read-out: MIC
[23] = Enterococcus faecalis, read-out: MIC
[24] = Escherichia coli, read-out: MIC
[25] = Enterobacter cloacae, read-out: MIC
[26] = Klebsiella pneumoniae, read-out: MIC
[27] = Klebsiella oxytoca, read-out: MIC
[28] = Proteus mirabilis, read-out: MIC
[29] = Proteus vulgaris, read-out: MIC
[30] = Pseudomonas aeruginosa, read-out: MIC
[31] = Staphylococcus aureus, read-out: MIC
[32] = Serratia marcescens, read-out: MIC
[33] = Streptococcus pyogenes, read-out: MIC

MIC [1, 20]: 1.56 µg/mL (≈ 3.51 µM)
MIC (Burkholderia cepacia; [21]): 3.13 µg/mL (≈ 7.04 µM)
MIC (Citrobacter freundii [2]; [22]): > 100 µg/mL
MIC (Citrobacter freundii [3]; [22]): 25 µg/mL (≈ 56.3 µM)
MIC (Enterococcus faecalis; [23]): 0.39 µg/mL (≈ 0.878 µM)
MIC (Escherichia coli [4]; [24]): 25 µg/mL (≈ 56.3 µM)
MIC (Escherichia coli [5]; [24]): 25 µg/mL (≈ 56.3 µM)
MIC (Escherichia coli [6]; [24]): 0.05 µg/mL (≈ 0.113 µM)
MIC (Escherichia coli [7]; [24]): 1.56 µg/mL (≈ 3.51 µM)
MIC (Enterobacter cloacae; [25]): 6.25 µg/mL (≈ 14.1 µM)
MIC (Klebsiella pneumoniae [8]; [26]): 1.56 µg/mL (≈ 3.51 µM)
MIC (Klebsiella pneumoniae [9]; [26]): 3.13 µg/mL (≈ 7.04 µM)
MIC (Klebsiella oxytoca; [27]): 3.13 µg/mL (≈ 7.04 µM)
MIC (Proteus mirabilis; [28]): 0.39 µg/mL (≈ 0.878 µM)
MIC (Proteus vulgaris [10]; [29]): 100 µg/mL (≈ 225 µM)
MIC (Proteus vulgaris [11]; [29]): 1.56 µg/mL (≈ 3.51 µM)
MIC (Pseudomonas aeruginosa [12]; [30]): 50 µg/mL (≈ 113 µM)
MIC (Pseudomonas aeruginosa [13]; [30]): > 100 µg/mL
MIC (Pseudomonas aeruginosa [14]; [30]): 12.5 µg/mL (≈ 28.1 µM)
MIC (Pseudomonas aeruginosa [15]; [30]): 12.5 µg/mL (≈ 28.1 µM)
MIC (Staphylococcus aureus [16]; [31]): 0.05 µg/mL (≈ 0.113 µM)
MIC (Staphylococcus aureus [17]; [31]): 3.13 µg/mL (≈ 7.04 µM)
MIC (Staphylococcus aureus [18]): 0.025 µg/mL (≈ 0.0563 µM)
MIC (Staphylococcus aureus [19]; [31]): 0.1 µg/mL (≈ 0.225 µM)
MIC (Serratia marcescens; [32]): 12.5 µg/mL (≈ 28.1 µM)
MIC (Streptococcus pyogenes; [33]): 0.39 µg/mL (≈ 0.878 µM)
SMILES: COc1c(N2CC[C@@](CO)(C(F)(F)F)C2)c(F)cc2c(=O)c(C(=O)O)cn(C3CC3)c12

SMILES: NC1CCN(c2nc3c(cc2F)c(=O)c(C(=O)O)cn3-c2ccc(F)cc2F)C1 (centres undefined) [TOSUFLOXACIN]
MIC [1, 20]: 0.025 µg/mL (≈ 0.0618 µM)
MIC (Burkholderia cepacia; [21]): 0.78 µg/mL (≈ 1.93 µM)
MIC (Citrobacter freundii [2]; [22]): > 12.5 µg/mL
MIC (Citrobacter freundii [3]; [22]): 0.39 µg/mL (≈ 0.965 µM)
MIC (Enterococcus faecalis; [23]): 0.2 µg/mL (≈ 0.495 µM)
MIC (Escherichia coli [4]; [24]): 0.39 µg/mL (≈ 0.965 µM)
MIC (Escherichia coli [5]; [24]): 0.39 µg/mL (≈ 0.965 µM)
MIC (Escherichia coli [6]; [24]): 0.013 µg/mL (≈ 0.0322 µM)
MIC (Escherichia coli [7]; [24]): 0.05 µg/mL (≈ 0.124 µM)
MIC (Enterobacter cloacae; [25]): 0.2 µg/mL (≈ 0.495 µM)
MIC (Klebsiella pneumoniae [8]; [26]): 0.025 µg/mL (≈ 0.0618 µM)
MIC (Klebsiella pneumoniae [9]; [26]): 0.025 µg/mL (≈ 0.0618 µM)
MIC (Klebsiella oxytoca; [27]): 0.05 µg/mL (≈ 0.124 µM)
MIC (Proteus mirabilis; [28]): 0.05 µg/mL (≈ 0.124 µM)
MIC (Proteus vulgaris [10]; [29]): > 12.5 µg/mL
MIC (Proteus vulgaris [11]; [29]): 0.05 µg/mL (≈ 0.124 µM)
MIC (Pseudomonas aeruginosa [12]; [30]): 6.25 µg/mL (≈ 15.5 µM)
MIC (Pseudomonas aeruginosa [13]; [30]): > 12.5 µg/mL
MIC (Pseudomonas aeruginosa [14]; [30]): 0.39 µg/mL (≈ 0.965 µM)
MIC (Pseudomonas aeruginosa [15]; [30]): 0.39 µg/mL (≈ 0.965 µM)
MIC (Staphylococcus aureus [16]; [31]): 0.05 µg/mL (≈ 0.124 µM)
MIC (Staphylococcus aureus [17]; [31]): 12.5 µg/mL (≈ 30.9 µM)
MIC (Staphylococcus aureus [18]): 0.025 µg/mL (≈ 0.0618 µM)
MIC (Staphylococcus aureus [19]; [31]): 0.05 µg/mL (≈ 0.124 µM)
MIC (Serratia marcescens; [32]): 0.39 µg/mL (≈ 0.965 µM)
MIC (Streptococcus pyogenes; [33]): 0.1 µg/mL (≈ 0.247 µM)

MIC [1, 20]: 0.2 µg/mL
MIC (Burkholderia cepacia; [21]): 1.56 µg/mL
MIC (Citrobacter freundii [2]; [22]): 100 µg/mL
MIC (Citrobacter freundii [3]; [22]): 3.13 µg/mL
MIC (Enterococcus faecalis; [23]): 0.2 µg/mL
MIC (Escherichia coli [4]; [24]): 3.13 µg/mL
MIC (Escherichia coli [5]; [24]): 3.13 µg/mL
MIC (Escherichia coli [6]; [24]): ≤ 0.006 µg/mL
MIC (Escherichia coli [7]; [24]): 0.39 µg/mL
MIC (Enterobacter cloacae; [25]): 1.56 µg/mL
MIC (Klebsiella pneumoniae [8]; [26]): 0.2 µg/mL
MIC (Klebsiella pneumoniae [9]; [26]): 0.39 µg/mL
MIC (Klebsiella oxytoca; [27]): 0.39 µg/mL
MIC (Proteus mirabilis; [28]): 0.2 µg/mL
MIC (Proteus vulgaris [10]; [29]): 100 µg/mL
MIC (Proteus vulgaris [11]; [29]): 0.39 µg/mL
MIC (Pseudomonas aeruginosa [12]; [30]): 25 µg/mL
MIC (Pseudomonas aeruginosa [13]; [30]): > 100 µg/mL
MIC (Pseudomonas aeruginosa [14]; [30]): 6.25 µg/mL
MIC (Pseudomonas aeruginosa [15]; [30]): 6.25 µg/mL
MIC (Staphylococcus aureus [16]; [31]): 0.025 µg/mL
MIC (Staphylococcus aureus [17]; [31]): 1.56 µg/mL
MIC (Staphylococcus aureus [18]): ≤ 0.006 µg/mL
MIC (Staphylococcus aureus [19]; [31]): 0.05 µg/mL
MIC (Serratia marcescens; [32]): 3.13 µg/mL
MIC (Streptococcus pyogenes; [33]): 0.1 µg/mL
SMILES: COc1c(N2CC[C@@](N)(C(F)(F)F)C2)c(F)cc2c(=O)c(C(=O)O)cn(C3CC3)c12.Cl

MIC [1, 20]: 0.2 µg/mL (≈ 0.45 µM)
MIC (Burkholderia cepacia; [21]): 1.56 µg/mL (≈ 3.51 µM)
MIC (Citrobacter freundii [2]; [22]): > 100 µg/mL
MIC (Citrobacter freundii [3]; [22]): 6.25 µg/mL (≈ 14.1 µM)
MIC (Enterococcus faecalis; [23]): 0.1 µg/mL (≈ 0.225 µM)
MIC (Escherichia coli [4]; [24]): 3.13 µg/mL (≈ 7.04 µM)
MIC (Escherichia coli [5]; [24]): 3.13 µg/mL (≈ 7.04 µM)
MIC (Escherichia coli [6]; [24]): 0.2 µg/mL (≈ 0.45 µM)
MIC (Escherichia coli [7]; [24]): 0.39 µg/mL (≈ 0.878 µM)
MIC (Enterobacter cloacae; [25]): 1.56 µg/mL (≈ 3.51 µM)
MIC (Klebsiella pneumoniae [8]; [26]): 0.39 µg/mL (≈ 0.878 µM)
MIC (Klebsiella pneumoniae [9]; [26]): 0.78 µg/mL (≈ 1.76 µM)
MIC (Klebsiella oxytoca; [27]): 0.78 µg/mL (≈ 1.76 µM)
MIC (Proteus mirabilis; [28]): 0.1 µg/mL (≈ 0.225 µM)
MIC (Proteus vulgaris [10]; [29]): 100 µg/mL (≈ 225 µM)
MIC (Proteus vulgaris [11]; [29]): 0.39 µg/mL (≈ 0.878 µM)
MIC (Pseudomonas aeruginosa [12]; [30]): 25 µg/mL (≈ 56.3 µM)
MIC (Pseudomonas aeruginosa [13]; [30]): > 100 µg/mL
MIC (Pseudomonas aeruginosa [14]; [30]): 3.13 µg/mL (≈ 7.04 µM)
MIC (Pseudomonas aeruginosa [15]; [30]): 3.13 µg/mL (≈ 7.04 µM)
MIC (Staphylococcus aureus [16]; [31]): ≤ 0.006 µg/mL
MIC (Staphylococcus aureus [17]; [31]): 0.39 µg/mL (≈ 0.878 µM)
MIC (Staphylococcus aureus [18]): ≤ 0.006 µg/mL
MIC (Staphylococcus aureus [19]; [31]): 0.013 µg/mL (≈ 0.0293 µM)
MIC (Serratia marcescens; [32]): 3.13 µg/mL (≈ 7.04 µM)
MIC (Streptococcus pyogenes; [33]): 0.05 µg/mL (≈ 0.113 µM)
SMILES: COc1c(N2C[C@H](CO)[C@H](C(F)(F)F)C2)c(F)cc2c(=O)c(C(=O)O)cn(C3CC3)c12

MIC [1]: 0.1 µg/mL
MIC (Burkholderia cepacia): 1.56 µg/mL
MIC (Citrobacter freundii [2]): 12.5 µg/mL
MIC (Citrobacter freundii [3]): 0.78 µg/mL
MIC (Enterococcus faecalis): 0.025 µg/mL
MIC (Escherichia coli [4]): 0.39 µg/mL
MIC (Escherichia coli [5]): 0.39 µg/mL
MIC (Escherichia coli [6]): 0.025 µg/mL
MIC (Escherichia coli [7]): 0.025 µg/mL
MIC (Enterobacter cloacae): 0.39 µg/mL
MIC (Klebsiella pneumoniae [8]): 0.05 µg/mL
MIC (Klebsiella pneumoniae [9]): 0.1 µg/mL
MIC (Klebsiella oxytoca): 0.1 µg/mL
MIC (Proteus mirabilis): 0.05 µg/mL
MIC (Proteus vulgaris [10]): 50 µg/mL
MIC (Proteus vulgaris [11]): 0.05 µg/mL
MIC (Pseudomonas aeruginosa [12]): 12.5 µg/mL
MIC (Pseudomonas aeruginosa [13]): 100 µg/mL
MIC (Pseudomonas aeruginosa [14]): 1.56 µg/mL
MIC (Pseudomonas aeruginosa [15]): 1.56 µg/mL
MIC (Staphylococcus aureus [16]): <0.006 µg/mL
MIC (Staphylococcus aureus [17]): 0.39 µg/mL
MIC (Staphylococcus aureus [19]): 0.025 µg/mL
MIC (Serratia marcescens): 0.39 µg/mL
MIC (Streptococcus pyogenes): 0.013 µg/mL
SMILES: COc1c(N2C[C@@H](CN)[C@H](C(F)(F)F)C2)c(F)cc2c(=O)c(C(=O)O)cn(C3CC3)c12.Cl
